According to ChEMBL document CHEMBL1201862, “PubChem BioAssay data set” (2004):
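Each compound was tested at five concentrations against cells in 96-well plates for 48 hours. Abbreviation: GI50, concentration required for 50% inhibition of growth.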 Active and inactive are the calls of the source. Cut-off read from the data, not from the text of the source: active = GI50 up to about 1.1 µM and inactive = higher.

Tests used:
Experiment in all cases: NCI anticancer screen, dose series, 48 h
786-0 = system: 786-0
BT-549 = system: BT-549
HOP-92 = system: HOP-92
HT-29 = system: HT-29
LOX IMVI = system: LOX IMVI
MCF7 = system: MCF7
MDA-MB-435 = system: MDA-MB-435
NCI-H23 = system: NCI-H23
NCI-H460 = system: NCI-H460
OVCAR-5 = system: OVCAR-5
RXF 393 = system: RXF 393
SF-268 = system: SF-268
SK-MEL-28 = system: SK-MEL-28
T47D = system: T47D
K562 = system: K562
MDA-MB-231 = system: MDA-MB-231
HCC 2998 = system: HCC 2998

Measured: GI50

COc1cc(C2=C(c3cc(OC)c4ccccc4c3OC)C(=O)c3ccccc3C2=O)c(OC)c2ccccc12
inactive: 786-0 > 100 µM | BT-549 > 100 µM | HOP-92 > 100 µM | HT-29 > 100 µM | LOX IMVI > 100 µM | MCF7 > 100 µM | MDA-MB-435 > 100 µM | NCI-H23 > 100 µM | NCI-H460 > 100 µM | OVCAR-5 75.9 µM | RXF 393 > 100 µM | SF-268 > 100 µM | SK-MEL-28 > 100 µM | T47D > 100 µM

CCCCCCCCCCCCCC(=O)O.O=CC(O)C(O)C(OC1OC(CO)C(O)C(O)C1O)C(O)CO (configuration not stated)
inactive: 786-0 > 100 µM | HOP-92 48.3 µM | HT-29 > 100 µM | K562 26.4 µM | MCF7 > 100 µM | MDA-MB-231 28.8 µM | MDA-MB-435 40.6 µM | NCI-H23 > 100 µM | NCI-H460 > 100 µM | OVCAR-5 > 100 µM | RXF 393 > 100 µM | SF-268 > 100 µM | SK-MEL-28 > 100 µM | T47D > 100 µM

Cc1cc(C(F)(F)F)cc(-n2nc(NS(=O)(=O)c3cc(C)c(Cl)cc3S)nc2N)n1
inactive: 786-0 44.6 µM | HCC 2998 34.8 µM | HOP-92 32.7 µM | HT-29 42 µM | K562 39.7 µM | LOX IMVI 18.7 µM | MCF7 45.1 µM | MDA-MB-231 37.7 µM | MDA-MB-435 41.4 µM | NCI-H460 24.4 µM | RXF 393 > 100 µM | SF-268 92.9 µM | SK-MEL-28 55.3 µM | T47D 57.1 µM

Cc1c(Cl)ccc2c(=O)c3cccc(CC(=O)O)c3oc12
inactive: 786-0 > 100 µM | BT-549 38.5 µM | HCC 2998 > 100 µM | HOP-92 > 100 µM | HT-29 > 100 µM | K562 > 100 µM | LOX IMVI > 100 µM | MCF7 35.6 µM | MDA-MB-231 > 100 µM | MDA-MB-435 > 100 µM | NCI-H23 > 100 µM | NCI-H460 > 100 µM | SF-268 > 100 µM | SK-MEL-28 > 100 µM

CC(=O)NC1C(OCc2ccccc2)OC(CO)C(O)C1OCC(=O)NC(C)C(=O)NC(CCC(=O)OCCNC(=O)c1cccc2cc3ccccc3nc12)C(N)=O (configuration not stated)
inactive: 786-0 18.7 µM | BT-549 20.3 µM | HCC 2998 18.4 µM | HOP-92 23.2 µM | HT-29 13 µM | K562 39.1 µM | LOX IMVI 11.2 µM | MCF7 25.2 µM | MDA-MB-435 17.2 µM | NCI-H23 20.7 µM | NCI-H460 8.95 µM | OVCAR-5 22.1 µM | RXF 393 16.5 µM | SF-268 22.3 µM | SK-MEL-28 19.4 µM | T47D 22.5 µM

Fc1ccc(C2(CCCN3CCc4[nH]c5cc(F)ccc5c4C3)OCCO2)cc1
inactive: 786-0 13.9 µM | HCC 2998 2.13 µM | HOP-92 2.99 µM | HT-29 3.81 µM | K562 4.18 µM | LOX IMVI 12.6 µM | MCF7 10.6 µM | MDA-MB-231 18.7 µM | MDA-MB-435 13.5 µM | NCI-H23 16.2 µM | NCI-H460 10.4 µM | OVCAR-5 2.89 µM | RXF 393 13.5 µM | SF-268 15.3 µM | SK-MEL-28 12.6 µM | T47D 13.5 µM

O=C1NC(N2CCCCC2)=N/C1=C\c1ccccc1O
inactive: 786-0 > 100 µM | HOP-92 > 100 µM | HT-29 > 100 µM | K562 > 100 µM | LOX IMVI > 100 µM | MCF7 > 100 µM | MDA-MB-231 > 100 µM | MDA-MB-435 > 100 µM | NCI-H23 > 100 µM | OVCAR-5 > 100 µM | RXF 393 > 100 µM | SF-268 > 100 µM | SK-MEL-28 > 100 µM | T47D > 100 µM

c1ccc([P+](CCCCCC[P+](c2ccccc2)(c2ccccc2)c2ccccc2)(c2ccccc2)c2ccccc2)cc1
inactive: 786-0 24 µM | HCC 2998 46.7 µM | HOP-92 8.32 µM | HT-29 7.24 µM | K562 11.7 µM | LOX IMVI 12.2 µM | MCF7 5.94 µM | MDA-MB-231 12.8 µM | MDA-MB-435 15.2 µM | NCI-H23 4.71 µM | NCI-H460 9.38 µM | OVCAR-5 34.3 µM | RXF 393 11.6 µM | SF-268 3.49 µM | SK-MEL-28 17.5 µM | T47D 4.92 µM

N#CC1(C#N)NC(c2ccsc2)C(C#N)(C#N)NC1c1ccsc1 (configuration not stated)
inactive: 786-0 > 100 µM | BT-549 > 100 µM | HCC 2998 > 100 µM | HOP-92 > 100 µM | HT-29 > 100 µM | K562 > 100 µM | LOX IMVI > 100 µM | MCF7 > 100 µM | MDA-MB-231 > 100 µM | MDA-MB-435 > 100 µM | NCI-H23 > 100 µM | NCI-H460 > 100 µM | OVCAR-5 > 100 µM | SF-268 > 100 µM | SK-MEL-28 > 100 µM

O=c1c2c(sc3ccccc13)NCN(CCc1ccccc1)C2
inactive: 786-0 29.7 µM | BT-549 23.1 µM | HCC 2998 22.1 µM | HOP-92 53 µM | HT-29 18.4 µM | K562 19.7 µM | LOX IMVI 33.5 µM | MCF7 56.6 µM | MDA-MB-231 23.5 µM | MDA-MB-435 35.1 µM | NCI-H23 38.1 µM | NCI-H460 32.7 µM | OVCAR-5 81.5 µM | RXF 393 36.3 µM | SK-MEL-28 34.9 µM

C#CC(O)/C=C/C(O)CCCC(O)CC#CC(O)C#CC(O)CCCC(O)/C=C/CCCC(=O)CCCCCCCCCCCCCCCC(O)C(O)C#CC(=O)O (configuration not stated)
inactive: 786-0 > 50 µM | HCC 2998 > 50 µM | HOP-92 > 50 µM | HT-29 28.1 µM | K562 > 50 µM | LOX IMVI 10.3 µM | MCF7 > 50 µM | MDA-MB-231 > 50 µM | MDA-MB-435 > 50 µM | NCI-H23 > 50 µM | NCI-H460 > 50 µM | OVCAR-5 > 50 µM | RXF 393 > 50 µM | SF-268 > 50 µM | SK-MEL-28 > 50 µM | T47D > 50 µM

O=c1[nH]nc(-c2ccccc2)n1-c1cccc([N+](=O)[O-])c1
inactive: 786-0 > 100 µM | HCC 2998 > 100 µM | HOP-92 > 100 µM | HT-29 > 100 µM | K562 > 100 µM | LOX IMVI > 100 µM | MCF7 > 100 µM | MDA-MB-231 > 100 µM | MDA-MB-435 > 100 µM | NCI-H23 > 100 µM | NCI-H460 > 100 µM | OVCAR-5 > 100 µM | RXF 393 > 100 µM | SF-268 > 100 µM | SK-MEL-28 > 100 µM | T47D > 100 µM

COc1ccc(C2c3cc4c(cc3OC(N3CCCCC3)C2C)OCO4)cc1 (configuration not stated)
inactive: 786-0 80.2 µM | HT-29 > 100 µM | K562 > 100 µM | LOX IMVI > 100 µM | MCF7 > 100 µM | MDA-MB-435 27 µM | NCI-H23 58.5 µM | NCI-H460 > 100 µM | OVCAR-5 > 100 µM | SF-268 > 100 µM | SK-MEL-28 > 100 µM | T47D 71 µM
